Measurements: patent US10329309B2, “3-(3H-imidazo[4,5-B]pyridin-2-yl)-1H-pyrazolo[4,3-B]pyridines and therapeutic uses thereof” (Samumed, LLC, priority 2015, dated 2019)

Tested on: primary human mesenchymal stem cells (hMSCs)
Assay: Induction of chondrogenesis in primary human mesenchymal stem cells (nodule imaging, Rhodamine B/Nile Red)
Type: cell-based
Details: hMSC chondrogenesis; for Emax: TGF-β3 as positive control, read-out: Max. Activity as % TGF-β3 activity; for EC50: concentration required to induce 50% levels of chondrogenesis vs TGF-β3, read-out: Conc (nM) of 50% TGF-β3 activity
Method: Representative compounds were screened using primary human mesenchymal stem cells (hMSCs) to determine their ability to induce chondrogenesis (process by which cartilage is developed).
Primary human mesenchymal stem cells (hMSCs) were purchased from Lonza (Walkersville, Md.) and expanded in Mesenchymal Stem Cell Growth Media (Lonza). Cells between passage 3 and 6 were used for the experiments.
Each compound was dissolved in DMSO as a 10 mM stock and used to prepare compound source plates. For the 96 well assay, serial dilution (1:3, 6-point dose-response curves from 2700 nM to 10 nM) and compound transfer was performed using the ECHO 550 (Labcyte, Sunnyvale, Calif.) into 96-well clear bottom assay plates (Greiner Bio-One) with appropriate DMSO backfill for a final DMSO concentration of 0.03%. hMSCs were plated at 20,000 cells/well in 250 μL/well Incomplete Chondrogenic Induction Medium (Lonza; DMEM, dexamethasone, ascorbate, insulin-transferrin-selenium [ITS supplement], gentamycin-amphotericin [GA-1000], sodium pyruvate, proline and L-glutamine). TGF-−3 (10 ng/mL) was used as a positive control for differentiation while negative control wells were treated with 75 nL DMSO for normalization and calculating EC50 values. For the 384 well assay, serial dilution (1:3, 8-point dose-response curves from 5000 nM to 2.2 nM) and compound transfer was performed using the ECHO 550 (Labcyte, Sunnyvale, Calif.) into 384-well clear bottom assay plates (Greiner Bio-One) with appropriate DMSO backfill for a final DMSO concentration of 0.03%. hMSCs were plated at 8,000 cells/well in 80 μL/well Incomplete Chondrogenic Induction Medium (Lonza; DMEM, dexamethasone, ascorbate, insulin-transferrin-selenium [ITS supplement], gentamycin-amphotericin [GA-1000], sodium pyruvate, proline and L-glutamine). TGF-β3 (10 ng/mL) was used as a positive control for differentiation while negative control wells were treated with 25 nL DMSO for normalization and calculating EC50 values. Cells were incubated at 37° C. and 5% CO2 for 6 days. To image chondrogenic nodules, the cells were fixed using 4% formaldehyde (Electron Microscopy Sciences), and stained with 2 μg/mL Rhodamine B (Sigma-Aldrich) and 20 μM Nile Red (Sigma-Aldrich) [Johnson K., et. al, A Stem Cell-Based Approach to Cartilage Repair, Science, (2012), 336(6082), 717-721]. The nodules imaged (25 images per well for 96 well plates and 9 images per well for 384 well plates at 10× magnification) by excitation at 531 nm and emission at 625 nm and quantified using the CellInsight CX5 (Thermo Scientific). Area of nodules in each well was normalized to the average of 3 DMSO treated wells on the same plate using Excel (Microsoft Inc.). The normalized averages (fold change over DMSO) of 2 or 3 replicate wells for each compound concentration were calculated. Due to solubility limitations of some of the compounds, curve fitting was incomplete leading to inaccurate EC50 determinations.
Using TGF-β3 as a positive control, the concentration of representative compounds required to induce 50% levels of chondrogenesis is reported. In addition, the maximum activity of each compound and the respective dose that each compound reached maximum chondrogenesis activity is reported.

SMILES	Emax [%]	EC50 [nM]
CCC(=O)Nc1cncc(-c2ccc3[nH]nc(-c4nc5c(-c6ccsc6)ccnc5[nH]4)c3n2)c1 [Compound 281, N-(5-(3-(7-(thiophen-3-yl)-3H-imidazo[4,5-b]pyridin-2-yl)-1H-pyrazolo[4,3-b]pyridin-5-yl)pyridin-3-yl)propionamide]	38	
CN(C)c1cncc(-c2ccc3[nH]nc(-c4nc5c(-c6cccs6)ccnc5[nH]4)c3n2)c1 [Compound 343, N,N-dimethyl-5-(3-(7-(thiophen-2-yl)-3H-imidazo[4,5-b]pyridin-2-yl)-1H-pyrazolo [4,3-b]pyridin-5-yl)pyridin-3-amine]	57	900
CCNCc1cncc(-c2ccc3[nH]nc(-c4nc5c(-c6cc(F)cc(NCCN(C)C)c6)ccnc5[nH]4)c3n2)c1 [Compound 454, N^1-(3-(2-(5-(5-((ethylamino)methyl)pyridin-3-yl)-1H-pyrazolo[4,3-b]pyridin-3-yl)-3H-imidazo[4,5-b]pyridin-7-yl)-5-fluorophenyl)-N^2,N^2-dimethylethane-1,2-diamine]	149	21
CCCCC(=O)Nc1cncc(-c2ccc3[nH]nc(-c4nc5c(-c6cc(F)cc(NCCN(C)C)c6)ccnc5[nH]4)c3n2)c1 [Compound 467, N-(5-(3-(7-(3-((2-(dimethylamino)ethyl)amino)-5-fluorophenyl)-3H-imidazo[4,5-b]pyridin-2-yl)-1H-pyrazolo[4,3-b]pyridin-5-yl)pyridin-3-yl)pentanamide]	71	10
CCCC(=O)Nc1cncc(-c2ccc3[nH]nc(-c4nc5c(-c6cc(F)cc(CNS(C)(=O)=O)c6)ccnc5[nH]4)c3n2)c1 [Compound 493, N-(5-(3-(7-(3-fluoro-5-(methylsulfonamidomethyl)phenyl)-3H-imidazo[4,5-b]pyridin-2-yl)-1H-pyrazolo[4,3-b]pyridin-5-yl)pyridin-3-yl)butyramide]	43	
Fc1cccc(-c2ccnc3[nH]c(-c4n[nH]c5ccc(C6CCNCC6)nc45)nc23)c1 [Compound 505, 3-(7-(3-fluorophenyl)-3H-imidazo[4,5-b]pyridin-2-yl)-5-(piperidin-4-yl)-1H-pyrazolo[4,3-b]pyridine]	51	10
Fc1cccc(-c2ccnc3[nH]c(-c4n[nH]c5ccc(-c6cn[nH]c6)nc45)nc23)c1 [Compound 507, 3-(7-(3-fluorophenyl)-3H-imidazo[4,5-b]pyridin-2-yl)-5-(1H-pyrazol-4-yl)-1H-pyrazolo[4,3-b]pyridine]	57	7
Cn1cc(-c2ccc3[nH]nc(-c4nc5c(-c6cccc(F)c6)ccnc5[nH]4)c3n2)cn1 [Compound 508, 3-(7-(3-fluorophenyl)-3H-imidazo[4,5-b]pyridin-2-yl)-5-(1-methyl-1H-pyrazol-4-yl)-1H-pyrazolo[4,3-b]pyridine]	43	
Fc1cccc(-c2ccnc3[nH]c(-c4n[nH]c5ccc(-c6cncc(OC7CCNCC7)c6)nc45)nc23)c1 [Compound 512, 3-(7-(3-fluorophenyl)-3H-imidazo[4,5-b]pyridin-2-yl)-5-(5-(piperidin-4-yloxy)pyridin-3-yl)-1H-pyrazolo[4,3-b]pyridine]	93	2
